From ChEMBL document CHEMBL5247585, “Design, synthesis, and evaluation of 4(1H)-quinolinone and urea derivatives as KRASG12C inhibitors with potent antitumor activity against KRAS-mutant non-small cell lung cancer” (Eur J Med Chem, 2022)

Columns and labels:
NCI-H23 = assay: Antiproliferative activity against human NCI-H23 cells harboring KRAS G12C mutant assessed as reduction in cell viability incubated for 72 hrs by MTT assay; assay type: functional, cell-based; conditions: NCI-H23, 72 h
A549 = assay: Antiproliferative activity against human A549 cells harboring KRAS G12S mutant assessed as reduction in cell viability incubated for 72 hrs by MTT assay; assay type: functional, cell-based; conditions: A549, 72 h
NCI-H2228 = assay: Antiproliferative activity against human NCI-H2228 cells harboring wild type KRAS assessed as reduction in cell viability incubated for 72 hrs by MTT assay; assay type: functional, cell-based; conditions: NCI-H2228, 72 h
NCI-H358 = assay: Antiproliferative activity against human NCI-H358 cells harboring KRAS G12C mutant assessed as reduction in cell viability incubated for 72 hrs by MTT assay; assay type: functional, cell-based; conditions: NCI-H358, 72 h
[1] = Selectivity index, ratio of IC50 for human A549 cells harboring KRAS G12S mutant to IC50 for human NCI-H23 cells harboring KRAS G12C mutant; assay type: functional
[2] = Selectivity index, ratio of IC50 for human NCI-H2228 cells harboring wild type KRAS to IC50 for human NCI-H358 cells harboring KRAS G12C mutant; assay type: functional
[3] = Selectivity index, ratio of IC50 for human A549 cells harboring KRAS G12S mutant to IC50 for human NCI-H358 cells harboring KRAS G12C mutant; assay type: functional
[4] = Selectivity index, ratio of IC50 for human NCI-H2228 cells harboring wild type KRAS to IC50 for human NCI-H23 cells harboring KRAS G12C mutant; assay type: functional

| Structure (SMILES) | IC50 (NCI-H23) [µM] | IC50 (A549) [µM] | IC50 (NCI-H2228) [µM] | IC50 (NCI-H358) [µM] | Ratio IC50 [1] | Ratio IC50 [2] | Ratio IC50 [3] | Ratio IC50 [4] |
| --- | --- | --- | --- | --- | --- | --- | --- | --- |
| O=C(Nc1ccc(Cl)c(-c2ccccc2F)c1)NC1CCN(C(=O)CCl)CC1 | 42.8 | > 100 | 34.9 | 37.7 | – | – | – | – |
| C=CC(=O)N1CC[C@H](NC(=O)Nc2ccc(Cl)cc2)C1 | > 100 | > 100 | > 100 | > 100 | – | – | – | – |
| C=CS(=O)(=O)NC1CCN(C(=O)c2cc(=O)c3cc(Cl)c(I)cc3[nH]2)CC1 | 6.4 | 11.9 | 19.4 | 9.1 | 2 | 2 | 2 | 2 |
| O=C(CCl)N1CCN(C(=O)Nc2ccc(Cl)c(C(F)(F)F)c2)CC1 | 9.2 | 1.5 | 0.6 | 4.6 | – | – | – | – |
| O=C(Nc1ccc(Cl)c(C(F)(F)F)c1)N[C@H]1CCN(C(=O)CCl)C1 | 1.5 | 11.3 | 7.3 | 2.4 | 3 | 3 | 3 | 3 |
| O=C(NC1CCN(C(=O)CCl)C1)c1cc(=O)c2cc(Cl)c(I)cc2[nH]1 (stereo not drawn) | 3.8 | 10.2 | 8.2 | 5.4 | – | – | – | – |
| C=CC(=O)N1CC[C@@H](NC(=O)Nc2ccc(Cl)c(Cl)c2)C1 | 41.4 | > 100 | 61.9 | 45.5 | – | – | – | – |
| C=CC(=O)N1CCC(NC(=O)Nc2ccc(Cl)c(C(F)(F)F)c2)CC1 | > 100 | > 100 | 45.8 | > 100 | – | – | – | – |
| C=CS(=O)(=O)N1CCC(NC(=O)Nc2ccc(Cl)c(C(F)(F)F)c2)CC1 | 2.6 | 3.3 | 6.4 | 4.2 | – | – | – | – |
| C=CS(=O)(=O)N1CCC(NC(=O)Nc2ccc(Cl)cc2)CC1 | 18.9 | > 100 | 27.5 | 31.9 | – | – | – | – |
| C=CC(=O)N1CC[C@H](NC(=O)Nc2ccc(Cl)c(Cl)c2)C1 | 40.8 | > 100 | 65.3 | 34.2 | – | – | – | – |
| O=C(Nc1ccc(Cl)c(C(F)(F)F)c1)N[C@@H]1CCN(C(=O)CCl)C1 | 4.6 | 26.1 | 4 | 4.5 | – | – | – | – |
| C=CC(=O)N1CC[C@@H](NC(=O)Nc2ccc(Cl)cc2)C1 | > 100 | > 100 | > 100 | > 100 | – | – | – | – |
| C=CC(=O)N1CC[C@@H](NC(=O)c2cc(=O)c3cc(Cl)c(I)cc3[nH]2)C1 | 11.6 | 20.3 | 24.6 | 10 | – | – | – | – |
| COc1cccc(F)c1-c1cc(NC(=O)NC2CCN(C(=O)CCl)CC2)ccc1Cl | 31.1 | 66.9 | > 100 | 27.8 | – | – | – | – |
